Test results as given in a melting point compilation (Tetko et al.; mined from patent text by program, amines drawn as free bases though some values may be those of a salt).

SMILES | melting point
Cc1ccccc1NC(=O)C=CC=CC1(F)CC1c1ccc(Br)c(Br)c1 (stereo not given) | 174 to 176 °C
O=C(c1cccs1)c1cnn2c(-c3cccc(-c4nnnn4CC4CCC4)c3)ccnc12 | 204 °C
COc1ccc2cc(CCC(C)=O)cc(F)c2c1 | 69 to 70 °C
CCCCCCCCCCCCCCSCc1ccc(C(C)=O)o1 | 55 to 57 °C
CCCC12CCC3=C(CCc4cc(O)ccc43)C1=CCC2=O (stereo not given) | 149 to 155 °C
NC(=O)N(O)Cc1cc(-c2ccc(Cl)cc2)n(-c2ccc(S(N)(=O)=O)cc2)n1 | 216 to 218 °C
Cc1cc(Cl)c2c(n1)C(O)CCC2 (stereo not given) | 87 to 90 °C
COCCOc1ccc(N)cc1S(=O)(=O)O | > 250 °C
CC(C)(C)NS(=O)(=O)c1c(CCl)nc2ccccn12 | 180 to 182 °C
CCC1(C)Cc2cc(OCC(=O)O)c(Cl)c(Cl)c2C1=O (stereo not given) | 168 °C
O=C(c1ccccc1)c1ccc(-c2nc(COc3ccc(CCCn4ccnc4)cc3)co2)cc1 | 112 to 113 °C
COc1cc(/C=C(\C#N)c2c[nH]c3ccc(OC)cc23)cc(OC)c1 | 141 °C
CC(C)C(=O)Nc1ccc(S(=O)(=O)c2ccc(F)cc2)cc1 | 112 to 115 °C
CSc1nc(OCCN2CCCC2=O)c(C#N)c(N2CCc3ccccc3CC2)n1 | 126 to 128 °C
CCOc1cc(OCCCc2cn(-c3ccc(C(F)(F)F)cn3)nc2OCc2ccccc2)ccc1CCC(=O)O | 106 to 107 °C
COc1ccc(C)cc1OCCO | 42 to 43 °C
O=C(O)CCC(O)c1ccc(-c2ccc(Cl)cc2)cc1 (stereo not given) | 134 to 135 °C
COC(=O)Nc1ccc(OC)c(OC)c1 | 83 to 87 °C
O=Cc1cccc2ncc(-c3ccccc3)cc12 | 122 to 124 °C
O=C1C=c2cc3c(cc2CC1=O)=CCO3 | 158 to 160 °C
COc1ccc(C[C@H](NC(=O)OCc2ccccc2)C(=O)O)cc1 | 106 to 108 °C
Cc1nc2cc(Oc3cc(-c4ccc(C(F)(F)F)cc4)ccn3)ccc2s1 | 160 to 164 °C
COC(=O)CCc1ccc(N2CCCN(c3ccc(C#N)cc3)C2=O)cc1 | 149 to 152 °C
O=C(CCCCCCOc1ccc(O)cc1)C(F)(F)F | 61 to 62 °C
O=C(Oc1ccc(/C=c2\[nH]c(=O)/c(=C/c3ccccc3)[nH]c2=O)nc1)c1ccncc1 | 262 to 264 °C

SMILES | melting point
CN1CCC(N(C)C(=O)c2ccc(Nc3nccc(Nc4ccc(C(F)(F)F)cc4)n3)cc2)CC1 | 238 to 244 °C
O=[N+]([O-])c1ccc(Sc2ccc(OCC3CO3)cc2)cc1 (stereo not given) | 96 to 99 °C
COCCCNS(=O)(=O)NC(=O)OCCCc1ccc(OCCOC)cc1Oc1ncc(Cl)cc1Cl | 87.9 to 89 °C
O=C1CCn2c1ccc2C(=O)c1ccc(Cl)cc1 | 165 to 166 °C
COc1ccc(C2(c3nc(N)nc(N)n3)CCCCC2)cc1 | 159 to 163 °C
OC[C@@H](O)COc1ccc(OCc2ccccc2)cc1 | 125 to 126 °C
CC(=O)OC1(C)CN(C(=O)Nc2ccc(C(F)(F)F)cc2)N=C1c1ccc(Cl)cc1 (stereo not given) | 92 to 96 °C
O=S(=O)(NN=C(Cl)c1ccccc1Br)c1ccccc1 | 120 to 122 °C
c1ccc(CC(Cc2ccccc2)(c2nnn[nH]2)c2nnn[nH]2)cc1 | 228 to 230 °C
C/C(=C(\C#N)C(N)=S)N1CCC(Cc2ccccc2)CC1 | 151 to 154 °C
CCCCCCCCNC(=O)N1CCC(c2nc(N)nc3ccccc23)CC1 | 85 to 87 °C
CCc1scc(C(=O)OC)c1NC(=O)C(F)(F)F | 55 to 56 °C
CC12CCC(O)CC1CCC1C2CCC2(C)C(C(O)CO)CCC12 (stereo not given) | 210 to 212 °C
O=S1C(Cl)=C(Cl)CN1C1CCCCC1 (stereo not given) | 115 to 116 °C
COc1ccc(-c2noc3c2C(c2ccc(OC)c(O)c2)C2=C(COC2=O)N3)cc1 (stereo not given) | 219 to 221 °C
CCCCCC(COc1ccc(C(=O)O)cc1)c1ccc2c(c1)C(C)(C)CCS2 (racemic) | 168 to 169 °C
Cc1ccc(OCc2ccc(OCc3nc(-c4ccccc4)oc3C)cc2)c(CC(=O)O)c1 | 115 to 116 °C
CN(CCNC(=O)NCCCOc1cccc(CN2CCCCC2)c1)CCC(c1ccc(Cl)cc1)c1ccccn1 (stereo not given) | 99 to 105 °C
COc1cc(N)c(Cl)cc1C(=O)NCC1CCN(CCCCC(=O)c2cn(C)c3ccccc23)CC1 | 87 to 89 °C
CCOC(=O)/C(=C\Nc1cc(OC)ccc1OC)c1ccc(OC)cc1 | 65 to 66 °C
Cc1nn(C)c2c(=O)[nH]cnc12 | 303 to 305 °C
CCN(CC)CCNC(=O)N1CCCC(S(=O)(=O)c2ccc(OC)cc2)C1 (stereo not given) | 118 to 121 °C
Oc1cccc(Oc2ccc(Cl)nn2)c1 | 185 to 187 °C
CCc1cc(Br)cc2c1C(=O)C(=O)N2 | 229 to 230 °C
COC(=O)C1(CC(N)=O)C(=O)N(C)C(=O)c2ccc(Cl)cc21 (stereo not given) | 220 to 222 °C

SMILES | melting point
CC(C)C(C)(NC(=O)c1nc2ccc(OC(F)F)cc2cc1C(=O)O)C(N)=O (stereo not given) | 194 to 196 °C
NC(=O)c1ccc(N2CCOCC2)cc1 | 220 to 221 °C
O=C(Nc1c[nH]nc1C(=O)Nc1cccc(C(F)(F)F)c1)c1ccccn1 | 236 to 237 °C
Cc1nnc(-c2ccc3occ(-c4cccc(C(F)(F)F)c4)c3c2)o1 | 126 to 127 °C
CCC(=O)Nc1ccccc1C(=O)O | 120 °C
CSc1ccnc(Oc2cc(C#N)cc(C#N)c2)n1 | 237 °C
Cc1nc2sccn2c(=O)c1C | 112 to 113 °C
CCOC(=O)c1ccc(-c2ccc(OCCCN)c(-c3ccc4c(c3)C(C)(C)CCC4(C)C)c2)cc1 | 155 °C
Nc1nc2ccccc2c2c1nc(CO)n2CCCCNC(=O)C1CCCC1 | 183 to 186 °C
O=C1Cc2c(Cl)cccc2Sc2c(F)cccc21 | 128 to 130 °C
COc1ccc(C(N)CCO)cc1OC (stereo not given) | 63.5 to 65.5 °C
Cc1nn(-c2cccc(C(F)(F)F)c2)cc1C(=O)O | 166 to 168 °C
C[C@](O)(COc1ccc(F)cc1)C(=O)Nc1ccc(C#N)c(C(F)(F)F)c1 | 139 to 140 °C
Cc1nc2cccc(OC3CCN(C(=O)C(C)C)CC3)c2c(N)c1C(=O)O | 184 to 186 °C
Cc1cn(C)c2cc(NC(=O)c3ccc(C(C)(C)O)cc3)ncc12 | 196 to 197 °C
N#Cc1ccc(N(Cc2ccc(OS(N)(=O)=O)cc2)n2cnnc2)cc1-c1ccoc1 | 195 to 196 °C
Cc1ccccc1C1C(C#N)=C(c2cccs2)Nc2n[nH]cc21 (stereo not given) | 276 °C
CS(=O)(=O)c1cc(Br)ccc1CN1C(=O)c2ccccc2C1=O | 188 to 190 °C
CS(=O)c1ccc(C2=C(c3ccccc3)C(=O)C(C)(C)O2)cc1Cl (stereo not given) | 120 to 121 °C
BrCc1nc2cc(Br)ccc2s1 | 107 °C
CNc1ccc(NC(=O)c2ccc(-c3[nH]nc4c3C(=O)c3c(NC(=O)NN5CCOCC5)cccc3-4)s2)cc1 | 230 °C
CCc1ccc2c(c1)C=Cc1oc(C)nc1C2c1cn(Cc2nc(C(=O)O)co2)c(=O)[nH]c1=S (stereo not given) | 210 °C
CC1NC(=O)NN=C1c1ccc(NC(=O)Nc2ccccc2)cc1 (stereo not given) | > 140 °C
CC1NCCc2ccccc21 (stereo not given) | 60 °C
CC1(C)OC(c2ccc(S(N)(=O)=O)c(Br)c2)=C(c2ccccc2)C1=O | 128 to 132 °C
